Columns and labels:
Assay in all cases: CDK enzymology experiment in vitro, capillary mobility shift assay (MSA)
Type in all cases: biochemical
[1] = molecular target: T1, CDK6 (Homo sapiens, UniProt Q00534); details: read-out: CDK6 (nM) inhibitory IC50
T1 construct: purchased Carna Company

[2] = molecular target: T2, CDK2 (Homo sapiens, UniProt P24941); details: read-out: CDK2 (nM) inhibitory IC50
T2 construct: purchased Carna Company
Summary of the method: (§1)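 Recombinant kinases tested against peptide substrates in 1× kinase buffer, with compound added as a 100-fold DMSO stock. Top concentration 1, 10 or 30 μM, 3-fold dilutions over 10 points, in duplicate. Substrate conversion read by Caliper EZ Reader, normalised to no-enzyme and no-compound controls, and IC50 fitted with a variable-slope log(inhibitor)–response model.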

[3] = molecular target: T3, CDK1 (Homo sapiens, UniProt P06493); details: read-out: CDK1 (nM) inhibitory IC50
T3 construct: purchased Carna Company
Summary of the method: as §1

[4] = molecular target: T4, CDK7 (Homo sapiens, UniProt P50613); details: read-out: CDK7 (nM) inhibitory IC50
T4 construct: purchased Carna Company
Summary of the method: as §1

[5] = molecular target: T5, CDK4 (Homo sapiens, UniProt P11802); details: read-out: CDK4 (nM) inhibitory IC50
T5 construct: purchased Carna Company
Summary of the method: as §1

[6] = molecular target: T6, CDK9 (Homo sapiens, UniProt P50750); details: read-out: CDK9 (nM) inhibitory IC50
T6 construct: purchased Carna Company
Summary of the method: as §1

T5 sequence (P11802 whole entry): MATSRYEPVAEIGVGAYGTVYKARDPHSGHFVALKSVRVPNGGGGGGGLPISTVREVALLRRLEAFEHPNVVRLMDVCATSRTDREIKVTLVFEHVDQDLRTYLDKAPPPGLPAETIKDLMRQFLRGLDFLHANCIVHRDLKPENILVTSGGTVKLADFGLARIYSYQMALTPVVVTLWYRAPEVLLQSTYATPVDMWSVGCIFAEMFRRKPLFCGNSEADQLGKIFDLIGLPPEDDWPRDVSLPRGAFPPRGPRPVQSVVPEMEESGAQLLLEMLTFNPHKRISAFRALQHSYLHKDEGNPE
T5 sequence (P30281 whole entry partner): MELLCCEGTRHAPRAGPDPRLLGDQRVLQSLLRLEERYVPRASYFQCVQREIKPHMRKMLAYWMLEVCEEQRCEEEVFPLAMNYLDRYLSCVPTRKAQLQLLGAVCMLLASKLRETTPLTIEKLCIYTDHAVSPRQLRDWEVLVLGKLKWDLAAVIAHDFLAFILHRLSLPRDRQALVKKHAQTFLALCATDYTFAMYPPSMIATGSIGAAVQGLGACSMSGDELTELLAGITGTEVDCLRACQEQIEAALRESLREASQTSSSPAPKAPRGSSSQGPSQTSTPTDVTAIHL
T3 sequence (P06493 whole entry): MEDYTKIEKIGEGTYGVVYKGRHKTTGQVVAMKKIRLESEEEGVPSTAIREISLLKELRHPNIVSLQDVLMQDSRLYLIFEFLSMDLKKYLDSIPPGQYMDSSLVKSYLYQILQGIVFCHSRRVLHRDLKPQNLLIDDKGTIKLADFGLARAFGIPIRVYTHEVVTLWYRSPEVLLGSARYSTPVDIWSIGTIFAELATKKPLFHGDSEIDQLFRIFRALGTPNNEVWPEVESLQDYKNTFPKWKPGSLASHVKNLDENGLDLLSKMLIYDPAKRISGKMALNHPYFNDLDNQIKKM
T3 sequence (P14635 whole entry partner): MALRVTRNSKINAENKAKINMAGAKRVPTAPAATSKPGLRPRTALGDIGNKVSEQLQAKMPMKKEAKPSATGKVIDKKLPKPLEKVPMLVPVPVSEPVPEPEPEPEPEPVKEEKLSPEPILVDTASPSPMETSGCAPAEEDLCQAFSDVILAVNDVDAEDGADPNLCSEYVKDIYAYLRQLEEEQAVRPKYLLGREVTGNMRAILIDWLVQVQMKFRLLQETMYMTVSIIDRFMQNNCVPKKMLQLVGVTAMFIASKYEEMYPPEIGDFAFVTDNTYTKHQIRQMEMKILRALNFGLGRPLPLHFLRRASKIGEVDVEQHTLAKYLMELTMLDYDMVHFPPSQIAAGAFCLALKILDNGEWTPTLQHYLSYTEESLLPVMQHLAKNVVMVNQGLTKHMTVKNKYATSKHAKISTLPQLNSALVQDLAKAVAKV
T1 sequence (Q00534 whole entry): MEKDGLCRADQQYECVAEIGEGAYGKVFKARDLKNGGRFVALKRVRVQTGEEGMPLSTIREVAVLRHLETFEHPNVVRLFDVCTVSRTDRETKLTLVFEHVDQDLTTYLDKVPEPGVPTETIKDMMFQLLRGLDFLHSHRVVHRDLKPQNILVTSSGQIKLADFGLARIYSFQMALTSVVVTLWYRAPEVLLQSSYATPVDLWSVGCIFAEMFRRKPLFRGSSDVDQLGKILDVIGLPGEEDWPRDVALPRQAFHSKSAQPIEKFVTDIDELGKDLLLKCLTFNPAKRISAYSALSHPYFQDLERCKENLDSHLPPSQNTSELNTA
T1 sequence (P30281 whole entry partner): as the sequence (P30281 whole entry partner) above
T6 sequence (P50750 whole entry): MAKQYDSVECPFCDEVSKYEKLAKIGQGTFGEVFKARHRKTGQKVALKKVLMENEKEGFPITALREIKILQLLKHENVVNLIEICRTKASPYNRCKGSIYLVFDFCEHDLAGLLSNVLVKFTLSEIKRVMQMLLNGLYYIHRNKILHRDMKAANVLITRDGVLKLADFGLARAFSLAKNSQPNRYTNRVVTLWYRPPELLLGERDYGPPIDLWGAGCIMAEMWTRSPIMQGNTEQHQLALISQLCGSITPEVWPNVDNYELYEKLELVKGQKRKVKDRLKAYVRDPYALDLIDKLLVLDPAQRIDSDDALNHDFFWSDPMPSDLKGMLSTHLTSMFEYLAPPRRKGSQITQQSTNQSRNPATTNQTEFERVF
T6 sequence (O60563 whole entry partner): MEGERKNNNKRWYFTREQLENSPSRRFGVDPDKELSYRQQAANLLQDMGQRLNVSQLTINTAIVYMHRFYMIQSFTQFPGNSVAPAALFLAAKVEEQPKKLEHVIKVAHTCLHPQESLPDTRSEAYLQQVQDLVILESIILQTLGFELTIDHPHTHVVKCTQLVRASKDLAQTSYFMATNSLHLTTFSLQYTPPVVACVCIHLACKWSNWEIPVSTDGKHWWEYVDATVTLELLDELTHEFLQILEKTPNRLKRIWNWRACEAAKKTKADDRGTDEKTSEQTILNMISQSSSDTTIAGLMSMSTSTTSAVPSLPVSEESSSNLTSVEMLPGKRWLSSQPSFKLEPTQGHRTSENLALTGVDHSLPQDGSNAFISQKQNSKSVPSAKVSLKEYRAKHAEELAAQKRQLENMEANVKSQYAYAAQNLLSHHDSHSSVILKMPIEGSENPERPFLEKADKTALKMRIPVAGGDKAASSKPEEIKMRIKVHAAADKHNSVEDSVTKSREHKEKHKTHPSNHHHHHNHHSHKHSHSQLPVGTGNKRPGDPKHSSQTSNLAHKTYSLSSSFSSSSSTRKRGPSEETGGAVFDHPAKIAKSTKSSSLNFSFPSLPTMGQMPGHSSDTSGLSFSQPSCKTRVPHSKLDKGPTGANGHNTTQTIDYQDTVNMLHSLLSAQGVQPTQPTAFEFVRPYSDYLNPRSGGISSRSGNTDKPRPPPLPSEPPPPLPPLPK
T4 sequence (P50613 whole entry): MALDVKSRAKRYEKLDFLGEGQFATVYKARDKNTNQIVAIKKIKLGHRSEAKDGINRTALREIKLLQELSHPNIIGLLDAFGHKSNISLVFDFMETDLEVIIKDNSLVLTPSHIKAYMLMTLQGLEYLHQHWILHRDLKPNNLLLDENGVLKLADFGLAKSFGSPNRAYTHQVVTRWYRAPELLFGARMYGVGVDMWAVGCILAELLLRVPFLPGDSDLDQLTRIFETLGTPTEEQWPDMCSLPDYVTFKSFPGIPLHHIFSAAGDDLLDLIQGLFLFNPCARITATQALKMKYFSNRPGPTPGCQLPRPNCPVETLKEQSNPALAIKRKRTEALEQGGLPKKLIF
T4 sequence (P51946 whole entry partner): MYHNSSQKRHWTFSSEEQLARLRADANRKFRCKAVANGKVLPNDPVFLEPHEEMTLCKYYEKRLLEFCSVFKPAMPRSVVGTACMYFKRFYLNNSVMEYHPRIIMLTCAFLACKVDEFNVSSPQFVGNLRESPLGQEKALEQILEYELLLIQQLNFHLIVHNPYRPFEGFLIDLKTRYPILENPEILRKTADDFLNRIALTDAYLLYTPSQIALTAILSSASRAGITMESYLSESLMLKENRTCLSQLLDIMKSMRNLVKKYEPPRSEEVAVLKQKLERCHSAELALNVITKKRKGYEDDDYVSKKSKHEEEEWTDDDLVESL
T4 sequence (P51948 whole entry partner): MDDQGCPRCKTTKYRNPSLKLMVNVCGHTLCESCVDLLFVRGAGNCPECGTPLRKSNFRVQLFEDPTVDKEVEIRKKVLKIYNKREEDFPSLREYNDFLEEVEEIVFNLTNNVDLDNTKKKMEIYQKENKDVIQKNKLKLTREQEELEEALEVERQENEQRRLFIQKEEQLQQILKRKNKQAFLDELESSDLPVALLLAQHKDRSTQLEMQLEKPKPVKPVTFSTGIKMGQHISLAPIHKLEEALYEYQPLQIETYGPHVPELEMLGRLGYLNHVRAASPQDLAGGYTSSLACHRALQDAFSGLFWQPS

Row | IC50 [1] [nM] | IC50 [2] [nM] | IC50 [3] [nM] | IC50 [4] [nM] | IC50 [5] [nM] | IC50 [6] [nM] | Structure (SMILES)
1 | 10 to 50 | < 0.5 | 2.5 to 10 | 10 to 50 | 2.5 to 10 | 100 to 1000 | O=S(=O)(c1cnn(CCO)c1)N1CCC(Nc2ncc(C(F)(F)F)c(O[C@H]3CCOC3)n2)CC1 [Example 27]
2 | 0.5 to 2.5 | < 0.5 | 2.5 to 10 | 2.5 to 10 | 0.5 to 2.5 | 100 to 1000 | O=S(=O)(c1ccc(C2=CCNCC2)cc1)N1CCC(Nc2ncc(C(F)(F)F)c(O[C@H]3CCOC3)n2)CC1 [Example 100, (S)-4-((Tetrahydrofuran-3-yl)oxy)-N-(1-((4-(1,2,3,6-tetrahydropyridin-4-yl)phenyl)sulfonyl)piperidin-4-yl)-5-(trifluoromethyl)pyrimidin-2-amine]
3 | 0.5 to 2.5 | < 0.5 | 2.5 to 10 | 2.5 to 10 | 0.5 to 2.5 | 100 to 1000 | O=S(=O)(c1ccc(C2=CCCNC2)cc1)N1CCC(Nc2ncc(C(F)(F)F)c(O[C@H]3CCOC3)n2)CC1 [Example 112, (S)-4-((Tetrahydrofuran-3-yl)oxy)-N-(1-((4-(1,2,5,6-tetrahydropyridin-3-yl)phenyl)sulfonyl)piperidin-4-yl)-5-(trifluoromethyl)pyrimidin-2-amine]
4 | 0.5 to 2.5 | < 0.5 | 2.5 to 10 | 10 to 50 | 0.5 to 2.5 | 100 to 1000 | O=S(=O)(c1ccc(N2CCNCC2)cc1)N1CCC(Nc2ncc(C(F)(F)F)c(O[C@H]3CCOC3)n2)CC1 [Example 116]
5 | 0.5 to 2.5 | < 0.5 | 2.5 to 10 | 2.5 to 10 | < 0.5 | 100 to 1000 | C[C@@H]1CN(c2ccc(S(=O)(=O)N3CCC(Nc4ncc(C(F)(F)F)c(O[C@H]5CCOC5)n4)CC3)cn2)C[C@H](C)N1 [Example 117]
6 | < 0.5 | < 0.5 | 2.5 to 10 | 2.5 to 10 | 0.5 to 2.5 | 100 to 1000 | C[C@H]1CN(c2ccc(S(=O)(=O)N3CCC(Nc4ncc(C(F)(F)F)c(O[C@H]5CCOC5)n4)CC3)cc2)C[C@H](C)N1 [Example 168]

From US20250009745A1, “CDK INHIBITOR” (SHANGHAI QILU PHARMACEUTICAL RESEARCH AND DEVELOPMENT …, priority 2021, published 2025)
